Measured values taken from US20240000831A1, “MOLECULAR BASIS OF FATTY LIVER INHIBITION BY SODIUM BORATES” (YEDITEPE UNIVERSITESI, priority 2020, published 2024).
Read-outs that look alike come from different tables or passages of the source.

Key:
[1] = system: pathological disorders in the liver caused by high-fat diet in balb/c mice; test: Histological evaluation of liver tissue (hematoxylin-eosin staining scores); type: in vivo; conditions: for hematoxylin-eosin staining technique score (Mean ± SD): 10 weeks, n = 6, YYD alone 12.6 ± 1.54, control 1.60 ± 1.14
Method: (§1) 8-weeks-old female 24 balb/c mice were used for the in vivo experiment. The adaptation process was completed in cages in a temperature-controlled room with a 12-hour light/dark cycle. Then, the mice were divided into four different dietary groups (n=6 for each group): normal diet (2.70 kcal/g), high-fat diet (YYD) (4.00 kcal/g), YYD supplemented with 0.5 mg/g SB, and YYD supplemented with 1.5 mg/g SB. At the end of 10 weeks, mice were sacrificed and weights of their livers were measured. At the end of 10 weeks, the livers of the mice were removed and weighed, and it was observed that fatty liver caused by high-fat diet was inhibited by the use of 1.5 mg/g SB as a supplement (FIG. 2A).
Liver tissues of mice were prepared for histological evaluation. These tissue samples were immersed in 10% neutral formaldehyde prepared with 0.1 M phosphate buffer (pH 7.4) for fixation at 4° C. Subsequently, the samples were rinsed in tap water for 12 hours, then dehydrated in an alcohol batch and embedded in paraffin. From samples embedded in paraffin, 5 micron thick samples were obtained using a rotary microtome (Leica RM 2245 model; Leica Instruments, Germany). All tissue sections were taken onto poly-L-lysine coated slides. All these samples were stained with hematoxylin eosin staining technique and imaged under a light microscope (Leica DM6000B). […] This method has been used to evaluate the situation of pathological deteriorations caused by high fat diet when different sodium boron administrations are applied and when not applied.

[2] = system: fatty liver caused by high-fat diet in balb/c mice; test: In vivo experiment: liver weight of high-fat diet mice; conditions: YYD supplemented with 1.5 mg/g SB, 10 weeks, female balb/c mice
Method: as §1

[3] = system: non-alcoholic fatty liver pathway genes in healthy human cells; test: Microarray experiment: gene expression related to fatty liver; type: cell-based; conditions: healthy human cells treated for 3 days; ADIPOR2, PRKAG2, IRS1, PIK3R1, NFKB1, MAP3K11, BID, CYCS, BAX, CASP3, TGFB1
Method: All changes in the level of gene expression related to fatty liver in healthy human cells were determined by this method upon being treated with sodium borates for 3 days. It was determined how these genes affect the pathway related to fatty liver. As a result of the microarray experiment, it is understood that the expression level of many genes in the non-alcoholic fatty liver pathway decreased by 2 times and more, and fatty liver was prevented as the pathway lost its function substantially. Genes, whose expression was reduced, were ADIPOR2, PRKAG2, IRS1, PIK3R1, NFKB1, MAP3K11, BID, CYCS, BAX, CASP3 and TGFB1 (FIG. 1). In our in vivo study, it has been proven on animals that fatty liver was inhibited as a result of the failure of this pathway.

[4] = Toxicology studies in rats adapted to humans; type: in vivo; conditions: daily dose of 500 mg, rat toxicology studies adapted to humans
Method: Today, there is no specific drug for direct treatment of fatty liver. […] It is known that boron homeostasis taken into mammalian systems is excreted via urine within 72 hours. Boron also regulates calcium, potassium and magnesium metabolisms in the body.

[5] = cited from earlier work

Compound: sodium borate [SB]
- hematoxylin-eosin staining technique score (Mean ± SD) ([1]; YYD + 0.5 mg SB/g VA): 8.6±1.14
- hematoxylin-eosin staining technique score (Mean ± SD) ([1]; YYD + 1.5 mg SB/g VA): 3.6 ± 0.89
- hematoxylin-eosin staining technique score (Mean ± SD) ([1]; YYD + 1.5 mg SB/g VA, listed as sodium borate): 3.6±0.89
- pathological disorders caused by high-fat diet (histological evaluation) ([1]; both doses (0.5 and 1.5 mg/g), liver tissue): decreased the pathological disorders
- fatty liver caused by high-fat diet (liver weight) [2]: inhibited
- decrease in expression levels of genes in the non-alcoholic fatty liver pathway [3]: ≥ 2 times
- side effects [4]: no side effects

Compound: [B] [boron]
- time to excretion via urine ([5]; mammalian systems): ≤ 72 h
- side effects ([5]; up to 18 mg of boron daily in adults): does not cause any side effects
